“Also recorded” adds a separate entry of the source.
How the values were obtained:
[1] = molecular target: T1, human Glucagon-R (Homo sapiens, UniProt P47871); test: Glucagon receptor efficacy assay (cAMP, HEK293 cells); format: cell-based; details: read-out: GLUR EC50
T1 construct: expressed in transfected cells
Protocol: The 5′-end primers additionally encoded a near Kozak consensus sequence to ensure efficient translation.
48 hr after transfection cells were seeded for limited dilution cloning and selected with 1 mg/ml G418 in the culture medium.
On the day of analysis, growth medium was removed and the cells washed once with 200 μl Tyrode buffer. Cells were incubated in 100 μl Tyrode buffer containing increasing concentrations of test peptides, 100 μM IBMX, and 6 mM glucose for 15 min at 37° C. The reaction was stopped by addition of 25 μl 0.5 M HCl and incubated on ice for 60 min. The cAMP content was estimated using the FlashPlate® cAMP kit from Perkin-Elmer.

[2] = 28 day treatment of diet induced obese (DIO) mice: body weight gain; format: in vivo
Protocol: Four weeks before drug treatments, C57Bl/6 male mice (7 weeks) (10-12 animals in each group) were put on high fat diet (HFD) and their day-night cycle reversed with lights On/Off at 2000/0800 hour. Experimental animals were conditioned to treatment by daily injections (s.c.) of 0.1 ml vehicle and acclimatized to handling by weighing them twice a week one week before start of drug administrations. The day before start of experiment, mice were stratified into groups with similar body weight (BW) and the next day groups of stratified mice were treated (b.i.d.; s.c.) with ZP2653 (SEQ ID NO: 4) (500 nmol/kg)), or vehicle (PBS, pH 7.4, 2.5 μl/g BW). A non-obese control group maintained on regular chow was treated with vehicle in the same treatment regime as the DIO groups. Body weights were recorded daily and used to administer the body weight-corrected doses of peptide throughout the study. Animals were fasted overnight before sacrifice. An eye blood sample (0.6 ml EDTA) was obtained the following morning immediately before cervical dislocation. Blood plasma samples were stored at −80° C. until analyzed for cholesterol, HDL and LDL using commercially available kits. Body weight gains throughout the treatment period were calculated for each animal by subtracting its weight at the initiation of treatment. […]

[3] = 28 day treatment of DIO mice: plasma cholesterol, HDL and LDL; format: in vivo; details: 4 weeks b.i.d., compared to vehicle
Protocol: Four weeks before drug treatments, C57Bl/6 male mice (7 weeks) (10-12 animals in each group) were put on high fat diet (HFD) and their day-night cycle reversed with lights On/Off at 2000/0800 hour. Experimental animals were conditioned to treatment by daily injections (s.c.) of 0.1 ml vehicle and acclimatized to handling by weighing them twice a week one week before start of drug administrations. […] A non-obese control group maintained on regular chow was treated with vehicle in the same treatment regime as the DIO groups. Body weights were recorded daily and used to administer the body weight-corrected doses of peptide throughout the study. Animals were fasted overnight before sacrifice. An eye blood sample (0.6 ml EDTA) was obtained the following morning immediately before cervical dislocation. Blood plasma samples were stored at −80° C. until analyzed for cholesterol, HDL and LDL using commercially available kits. Body weight gains throughout the treatment period were calculated for each animal by subtracting its weight at the initiation of treatment.
Statistical analyses of data on body weight gain and cholesterols among treatments by 2-way ANOVA with repeated measures and Bonferoni post-hoc analyses were performed with GraphPad Prism version 4. Differences were considered significant at the p<0.05 level.

[4] = tested on: primary rat adipocyte cultures; format: cell-based
Protocol: Adipocytes were isolated from epididymal fat dissected from normal young adult Sprague-Dawley rats. The fat lumps were minced, incubated and shaken (220 rpm) with collagenase (1 mg/ml) in Krebs-Ringer buffer containing 4% BSA (KRB-BSA) for 60 minutes at 37° C. The suspension was filtered through a nylon filter (160 μm pore size) and the filtrate centrifuged at 200×g for 3 min. The subjacent medium beneath the upper floating layer of adipocytes was removed with a Pasteur-pipette. The adipocytes were washed 3 times in KRB-BSA buffer by re-suspension and centrifugation. The adipocytes were re-suspended in KRB-BSA, mixed, incubated in and shaken with test compounds in 96-deep well plates (50,000 cells/well) in a total volume of 1 ml at 37° C. for 60 min. The plates were placed on ice for at least 10 min after incubation followed by centrifugation at 200×g for 3 min. 300 μl of the buffer beneath the adipocyte layer were collected in a 96-deep well plate. This process was repeated two more times and the 3 extracts collected from each culture pooled together. The glycerol formed by the lipolysis in the adipocyte cultures was measured by adding free glycerol reagent (200 μl) to aliquots (25 μl) of adipocyte extract, incubate at room temperature for 15 min, and measure the absorbance at 540 nm.

[5] = Oral glucose tolerance test (OGTT) in db/db mice; format: in vivo; details: 45 nmol/kg i.p.
Protocol: The animals were kept fasted during the experiment to prevent confounding food intake. Fifteen minutes later an oral dose of glucose (1 g/kg in 5 ml/kg) was given and BG levels were measured at t=30 min, t=60 min, t=120 min and t=240 min.
Difference from baseline (t=0) was calculated for each time point and AUC0-240 min values were determined. Statistical analyses of AUC values by one-way ANOVA and Dunnetts post-hoc analyses were performed with GraphPad Prism version 4. Differences were considered significant at the p<0.05 level.

T1 sequence (P47871 26-477): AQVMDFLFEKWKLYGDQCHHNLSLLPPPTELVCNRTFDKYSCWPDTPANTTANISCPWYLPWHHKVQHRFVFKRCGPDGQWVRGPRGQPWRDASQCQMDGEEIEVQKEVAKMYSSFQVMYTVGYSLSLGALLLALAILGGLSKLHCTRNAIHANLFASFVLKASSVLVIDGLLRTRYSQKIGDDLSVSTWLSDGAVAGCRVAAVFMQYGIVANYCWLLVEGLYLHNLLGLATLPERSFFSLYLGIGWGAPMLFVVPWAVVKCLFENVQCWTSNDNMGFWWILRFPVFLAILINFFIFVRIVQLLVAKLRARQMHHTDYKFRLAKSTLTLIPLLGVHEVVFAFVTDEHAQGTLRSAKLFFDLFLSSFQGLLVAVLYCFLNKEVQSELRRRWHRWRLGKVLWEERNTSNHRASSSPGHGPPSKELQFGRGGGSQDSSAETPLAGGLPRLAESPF

| EC50 [1] [nM] | EC50 [4] [nM] | Substance | effect on body weight gain ([2]; DIO mice on HFD, 500 nmol/kg b.i.d. s.c., 28 days, versus vehicle) | effect on fat deposition ([2]; DIO mice, 4 weeks treatment) | effect on HDL/LDL ratios [3] | effect on concentrations of LDL cholesterol [3] | lipolysis potency relative to OXM ([4]; primary adipocyte cultures) [times] | lipolysis potency relative to glucagon ([4]; primary adipocyte cultures) | improvement of glucose tolerance (decrease in Area Under the curve (AUC)) ([5]; AUC0-240 min) [%] | effect on oral glucose tolerance ([5]; OGTT) |
| --- | --- | --- | --- | --- | --- | --- | --- | --- | --- | --- |
| 0.1 |  | H-HSQGTFTSDYSLYLDSRRAKDFIEWLERA-NH2 [Compound L006-0050] |  |  |  |  |  |  |  |  |
|  | 3.6 | H-HSQGTFTSDYSLYLDSRRAKDFIEWLESA-NH2 [ZP2653] | decreased body weight gain to a level similar to that observed with chow feeding; also recorded: decreased body weight gain significantly | significantly decreased fat deposition | significant | significant effect | 50 | equipotent to glucagon | 39.5 | significantly improved glucose tolerance |
